Experimental data as given in patent publication US7816353B2 (Exelixis, Inc., priority 2003, dated 2010).

What was measured:
Format in all cases: biochemical
Akt1 = molecular target: T1, Akt1 (Homo sapiens, UniProt P31749); test: Akt1 Kinase Assay (Luciferase-Coupled Chemiluminescent Kinase assay, LCCA); details: human Akt1 kinase domain residues R144-A480, activated with PDK1; 1 μM ATP; read-out: Akt-1 IC50
T1 construct: made in house
Description: (§1) Kinase activity and compound inhibition are investigated using one or more of the three assay formats described below. The ATP concentrations for each assay are selected to be close to the Michaelis-Menten constant (KM) for each individual kinase. Dose-response experiments are performed at 10 different inhibitor concentrations in a 384-well plate format. The data are fitted to four-parameter equation (2) below; where Y is the observed signal, X is the inhibitor concentration, Min is the background signal in the absence of enzyme (0% enzyme activity), Max is the signal in the absence of inhibitor (100% enzyme activity), IC50 is the inhibitor concentration at 50% enzyme inhibition and H represents the empirical Hill's slope to measure the cooperativity. Typically H is close to unity. Y=Min+(Max−Min)/(1+(X/IC50)^H) Equation (2) p70S6 Kinase Assay
Biochemical activity of Akt1 kinase was assessed using a Luciferase-Coupled Chemiluminescent Kinase assay (LCCA) format. Kinase activity was measured as the percent ATP remaining following the kinase reaction. Remaining ATP was detected by luciferase-luciferin-coupled chemiluminescence. Specifically, the reaction was initiated by mixing test compounds, 1 μM ATP, 5 μM crosstide peptide and 1.3 nM Akt1 (baculovirus expressed human Akt1 kinase domain residues R144-A480, activated with PDK1) in a 20 uL assay buffer (20 mM Tris-HCL pH 7.5, 10 mM MgCl2, 0.01% Triton X-100, 1 mM DTT, 3 mM MnCl2). The mixture is incubated at ambient temperature for 3 hours after which 20 μL luciferase-luciferin mix is added and the chemiluminescent signal read using a Wallac Victor2 reader. The luciferase-luciferin mix consists of 50 mM HEPES, pH 7.8, 8.5 μg/mL oxalic acid (pH 7.8), 5 (or 50) mM DTT, 0.4% Triton X-100, 0.25 mg/mL coenzyme A, 63 uM AMP, 28 μg/mL luciferin and 40,000 units/mL luciferase.

PDK1 = molecular target: T2, PDK1 (Homo sapiens, UniProt O15530); test: PDK1 Kinase Assay (Luciferase-Coupled Chemiluminescent Kinase assay, LCCA); details: human PDK1 kinase domain residues M51-T359; 0.5 μM ATP; read-out: PDK-1 IC50
T2 construct: human PDK1 kinase domain residues M51-T359; made in house
T2 sequence (O15530 51-359): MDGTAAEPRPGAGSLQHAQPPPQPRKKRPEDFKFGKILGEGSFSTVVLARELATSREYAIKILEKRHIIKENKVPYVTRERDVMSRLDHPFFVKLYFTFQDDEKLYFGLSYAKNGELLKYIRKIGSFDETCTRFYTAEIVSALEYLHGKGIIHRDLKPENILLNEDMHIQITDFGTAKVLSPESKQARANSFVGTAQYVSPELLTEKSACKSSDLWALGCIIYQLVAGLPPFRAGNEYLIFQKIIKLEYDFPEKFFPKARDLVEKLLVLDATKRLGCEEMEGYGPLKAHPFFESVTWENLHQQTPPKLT
Description: as §1
Biochemical activity of PDK1 kinase was assessed using a Luciferase-Coupled Chemiluminescent Kinase assay (LCCA) format. Kinase activity was measured as the percent ATP remaining following the kinase reaction. Remaining ATP was detected by luciferase-luciferin-coupled chemiluminescence. Specifically, the reaction was initiated by mixing test compounds, 0.5 μM ATP, 0.6 μM PDKtide peptide and 6 nM PDK1 (baculovirus expressed human PDK1 kinase domain residues M51-T359) in a 20 uL assay buffer (20 mM Hepes pH 7.5, 1 mM CaCl2, 0.03% CHAPS, 2 mM DTT). The mixture is incubated at ambient temperature for 3 hours after which 20 μL luciferase-luciferin mix is added and the chemiluminescent signal read using a Wallac Victor2 reader. The luciferase-luciferin mix consists of 50 mM HEPES, pH 7.8, 8.5 μg/mL oxalic acid (pH 7.8), 5 (or 50) mM DTT, 0.4% Triton X-100, 0.25 mg/mL coenzyme A, 63 uM AMP, 28 μg/mL luciferin and 40,000 units/mL luciferase.

p70S6K = molecular target: T3, p70S6K (Homo sapiens, UniProt P23443, T412E); test: p70S6 Kinase Assay (Luciferase-Coupled Chemiluminescent Kinase assay, LCCA); details: human p70S6 kinase domain residues 1-421, T412E; 5 μM ATP; read-out: p70S6K IC50
T3 construct: human p70S6 kinase domain residues 1-421, containing a T412E mutation; made in house
T3 sequence (P23443 1-421 T412E): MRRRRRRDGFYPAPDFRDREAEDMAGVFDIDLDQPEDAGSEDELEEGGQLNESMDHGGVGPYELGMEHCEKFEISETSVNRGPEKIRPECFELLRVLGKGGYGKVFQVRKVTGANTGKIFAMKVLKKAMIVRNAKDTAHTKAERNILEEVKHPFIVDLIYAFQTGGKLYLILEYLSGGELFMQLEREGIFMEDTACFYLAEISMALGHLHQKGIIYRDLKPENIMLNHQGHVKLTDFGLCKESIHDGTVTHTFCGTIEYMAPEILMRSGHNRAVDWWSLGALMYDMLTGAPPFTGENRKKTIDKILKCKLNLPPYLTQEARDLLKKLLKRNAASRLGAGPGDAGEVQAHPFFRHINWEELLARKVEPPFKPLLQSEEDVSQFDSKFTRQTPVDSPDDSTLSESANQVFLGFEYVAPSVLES
Method in brief: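 Luciferase-coupled chemiluminescence measured percent ATP remaining after the 2 h kinase reaction at ambient temperature, with ATP near the kinase's KM. Ten inhibitor concentrations were tested. IC50 was obtained from a Hill-equation fit.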

T1 sequence (P31749 144-480): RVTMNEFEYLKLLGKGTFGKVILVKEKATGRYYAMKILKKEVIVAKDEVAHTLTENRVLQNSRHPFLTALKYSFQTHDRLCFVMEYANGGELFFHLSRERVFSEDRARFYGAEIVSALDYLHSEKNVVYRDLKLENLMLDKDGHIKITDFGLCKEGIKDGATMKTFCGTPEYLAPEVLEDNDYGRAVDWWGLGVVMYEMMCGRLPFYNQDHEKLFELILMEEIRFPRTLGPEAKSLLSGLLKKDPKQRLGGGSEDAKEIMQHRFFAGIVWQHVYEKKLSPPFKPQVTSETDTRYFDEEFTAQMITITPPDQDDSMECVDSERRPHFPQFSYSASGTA

IC50 (Akt1) [µM] | IC50 (PDK1) [µM] | IC50 (p70S6K) [µM] | Compound
> 2 | > 2 | < 0.05 | CSc1nc(COC(=O)Nc2cccc(C(F)(F)F)c2)cc(NCc2ccccc2)n1 [Example 40, {2-(methylthio)-6-[(phenylmethyl)amino]pyrimidin-4-yl}methyl [3-(trifluoromethyl)phenyl]carbamate]
> 2 | > 2 | < 0.05 | COc1ccc(OC)c(C(=O)CSc2nc(N)nc(SC)c2C#N)c1 [Example 30, 2-amino-4-({2-[2,5-bis(methyloxy)phenyl]-2-oxoethyl}thio)-6-(methylthio)pyrimidine-5-carbonitrile]
> 2 | > 2 | < 0.05 | CSc1cc(NCC(=O)Nc2cccc(C(F)(F)F)c2)nc(N)n1 [Example 5]
> 2 | > 2 | < 0.05 | CSc1nc(N)nc(SCC(=O)Nc2ccc(Cl)c(C(F)(F)F)c2)c1C#N [Example 34, 2-{[2-amino-5-cyano-6-(methylthio)pyrimidin-4-yl]thio}-N-[4-chloro-3-(trifluoromethyl)phenyl]acetamide]
> 2 | > 2 | 0.05 to 0.5 | CSc1nc(N)nc(N[C@@H](COC(C)=O)C(=O)Nc2cccc(C(F)(F)F)c2)c1C#N [Example 138, (2S0-2-{[2-amino-5-cyano-6-(methylthio)pyrimidin-4-yl]amino}-3-oxo-3-{[3-(trifluoromethyl)phenyl]amino}propyl acetate]
> 2 | > 2 | 0.05 to 0.5 | CSc1nc(N)nc(NCC(=O)Nc2cccc(C(F)(F)F)c2)c1C#N [Example 20, N^2-[2-amino-5-cyano-6-(methylthio)pyrimidin-4-yl]-N-[3-(trifluoromethyl)phenyl]glycinamide]
> 2 | > 2 | < 0.05 | CSc1nc(N)nc(SCC(=O)Nc2ccc(C(F)(F)F)cn2)c1C#N [Example 4]
> 2 | > 2 | < 0.05 | CSc1nc(N)nc(N(C)[C@@H](C)C(=O)Nc2cc(C(=O)NCCCN3CCN(C)CC3)cc(C(F)(F)F)c2)c1C#N [Example 131, 3-({N-[2-amino-5-cyano-6-(methylthio)pyrimidin-4-yl]-N-methyl-L-alanyl}amino)-N-[3-(4-methylpiperazin-1-yl)propyl]-5-(trifluoromethyl)benzamide]
> 2 | > 2 | < 0.05 | Cc1nc(OCC(=O)Nc2cccc(C(F)(F)F)c2)c(C#N)c(C)c1[N+](=O)[O-] [Example 1, 2-[(3-cyano-4,6-dimethyl-5-nitropyridin-2-yl)oxy]-N-[3-(trifluoromethyl)phenyl]acetamide]
 | > 2 | < 0.05 | Nc1nc(NCC(=O)Nc2cccc(C(F)(F)F)c2)cc(N2CCOCC2)n1
> 2 |  | > 2 | COC(=O)c1cc(NC(=O)[C@H](C)Nc2nc(N)nc(SC)c2C#N)cc(C(F)(F)F)c1 [Example 112, methyl 3-({N-[2-amino-5-cyano-6-(methylthio)pyrimidin-4-yl]-L-alanyl}amino)-5-(trifluoromethyl)benzoate]
> 2 |  | > 2 | CCOc1nc(N)nc(N[C@H](CCCCN)C(=O)Nc2cccc(C(F)(F)F)c2)c1C#N [Example 196, N~2~-[2-amino-5-cyano-6-(ethyloxy)pyrimidin-4-yl]-N-[3-(trifluoromethyl)phenyl]-D-lysinamide]
> 2 |  | > 2 | CSc1nc(N)nc(N[C@H](CCCCN)C(=O)Nc2cccc(C(F)(F)F)c2)c1C#N [Example 195]
> 2 |  | > 2 | CCOc1nc(N)nc(N[C@@H](CCCNC(N)=O)C(=O)Nc2cccc(C(F)(F)F)c2)c1C#N [Example 194]
> 2 |  | > 2 | CSc1ncc(C#N)c(NCC(=O)Nc2cccc(C(F)(F)F)c2)n1 [Example 100, N^2-[5-cyano-2-(methylthio)pyrimidin-4-yl]-N-[3-(trifluoromethyl)phenyl]glycinamide]
